Results from patent US7521396B2, “Substituted (thioxo)carbonylaminophenyluracils” (Bayer CropScience AG, priority 2002, dated 2009).
Read-outs that look alike come from different tables or passages of the source. Marks after values point to notes of the source that are not given here.

Experiments:
[1] = logP by HPLC on reversed-phase column (C 18), EEC Directive 79/831 Annex V.A8; format: physicochemical
[2] = tested on: weeds; test: Post-emergence test (Example B), damage to weeds; format: in vivo; details: test plants of 5-15 cm sprayed, rated after three weeks
Method: To produce a suitable preparation of active compound, 1 part by weight of active compound is mixed with the stated amount of solvent, the stated amount of emulsifier is added and the concentrate is diluted with water to the desired concentration.
Test plants of a height of 5-15 cm are sprayed with the preparation of active compound such that the particular amounts of active compound desired are applied per unit area. The concentration of the spray liquor is chosen such that the particular amounts of active compound desired are applied in 1000 l of water/ha.
After three weeks, the degree of damage to the plants is rated in % damage in comparison to the development of the untreated control.
The figures denote: • 0%=no effect (like untreated control) • 100%=total destruction

[3] = a) acidic range: 0.1% aqueous phosphoric acid, acetonitrile gradient, 43° C.

SMILES	logP [1]	other results
CCOC(=O)C1CCCN(C(=O)Nc2cc(-n3c(=O)cc(C(F)(F)F)n(C)c3=O)c(F)cc2Br)C1 (stereo not drawn) [Example 1, ethyl 1-[2-bromo-4-fluoro-5-(3-methyl-2,6-dioxo-4-trifluoromethyl-3,6-dihydro-2H-pyrimidin-1-yl)phenylcarbamoyl]piperidine-3-carboxylate]		chromatographic logP ([1]; reversed-phase C18 HPLC column, pH 2): 2.98
Cn1c(C(F)(F)F)cc(=O)n(-c2cc(NC(=O)SC3=NCCS3)c(Cl)cc2F)c1=O [Example 11]	logP = 3.50^a)	
CCOC(=O)C(C)SC(=O)Nc1cc(-n2c(=O)cc(C(F)(F)F)n(C)c2=O)c(F)cc1Cl (stereo not drawn) [Example 12]	logP = 3.11^a)	
CCOC(=O)CSC(=O)Nc1cc(-n2c(=O)cc(C(F)(F)F)n(C)c2=O)c(F)cc1Cl [Example 13]	logP = 2.80^a)	
COC(=O)CSC(=O)Nc1cc(-n2c(=O)cc(C(F)(F)F)n(C)c2=O)c(F)cc1Cl [Example 14]	logP = 2.55^a)	
Cn1c(C(F)(F)F)cc(=O)n(-c2cc(NC(=O)NCCC#N)c(Cl)cc2F)c1=O [Example 15]		logP [1, 3]: logP = 2.06^a)
Cn1c(C(F)(F)F)cc(=O)n(-c2cc(NC(=O)SC3=NCCS3)c(Br)cc2F)c1=O [Example 16]	logP = 3.53^a)	
CCOC(=O)C(C)SC(=O)Nc1cc(-n2c(=O)cc(C(F)(F)F)n(C)c2=O)c(F)cc1Br (stereo not drawn) [Example 17]	logP = 3.15^a)	
CCOC(=O)CSC(=O)Nc1cc(-n2c(=O)cc(C(F)(F)F)n(C)c2=O)c(F)cc1Br [Example 18]	logP = 2.90^a)	
COC(=O)CSC(=O)Nc1cc(-n2c(=O)cc(C(F)(F)F)n(C)c2=O)c(F)cc1Br [Example 19]	logP = 2.59^a)	
COC(=O)[C@@H]1CCCN1C(=O)Nc1cc(-n2c(=O)cc(C(F)(F)F)n(C)c2=O)c(F)cc1Br [Example 33]	logP = 2.52^a)	activity against weeds (degree of damage) [2]: strong activity
COC(=O)[C@@H]1CCCN1C(=O)Nc1cc(-n2c(=O)cc(C(F)(F)F)n(C)c2=O)c(F)cc1Cl [Example 34]	logP = 2.46^a)	activity against weeds (degree of damage) [2]: strong activity
CCOC(=O)C1CCCN(C(=O)Nc2cc(-n3c(=O)cc(C(F)(F)F)n(C)c3=O)c(F)cc2Cl)C1 (stereo not drawn) [Example 43]	logP = 2.93^a)	
CN1CCN(C(=O)Nc2cc(-n3c(=O)cc(C(F)(F)F)n(C)c3=O)c(F)cc2Cl)C1=O [Example 51]	logP = 2.52^a)	
CCN1CCN(C(=O)Nc2cc(-n3c(=O)cc(C(F)(F)F)n(C)c3=O)c(F)cc2Cl)C1=O [Example 53]	logP = 2 2.81^a)	
CN1CCCN(C(=O)Nc2cc(-n3c(=O)cc(C(F)(F)F)n(C)c3=O)c(F)cc2Cl)C1=O [Example 56]	logP = 2.76^a)	
Cn1c(C(F)(F)F)cc(=O)n(-c2cc(NC(=O)N3CCCCO3)c(Cl)cc2F)c1=O [Example 62]	logP = 2.89^a)	
Cn1c(C(F)(F)F)cc(=O)n(-c2cc(NC(=O)N3CCCCO3)c(Br)cc2F)c1=O [Example 63]	logP = 2.96^a)	
CCON(C)C(=O)Nc1cc(-n2c(=O)cc(C(F)(F)F)n(C)c2=O)c(F)cc1Cl [Example 68]	logP = 2.99^a)	
CCON(C)C(=O)Nc1cc(-n2c(=O)cc(C(F)(F)F)n(C)c2=O)c(F)cc1Br [Example 69]	logP = 3.06^a)	

SMILES	logP [1]	other results
CCON(CC)C(=O)Nc1cc(-n2c(=O)cc(C(F)(F)F)n(C)c2=O)c(F)cc1Cl [Example 71]	logP = 3.35^a)	
CCON(CC)C(=O)Nc1cc(-n2c(=O)cc(C(F)(F)F)n(C)c2=O)c(F)cc1Br [Example 72]	logP = 3.41^a)	
CCN(OC)C(=O)Nc1cc(-n2c(=O)cc(C(F)(F)F)n(C)c2=O)c(F)cc1Cl [Example 74]	logP = 2.93^a)	
CCN(OC)C(=O)Nc1cc(-n2c(=O)cc(C(F)(F)F)n(C)c2=O)c(F)cc1Br [Example 75]	logP = 3.01^a)	
CON(C)C(=O)N(C)c1cc(-n2c(=O)cc(C(F)(F)F)n(C)c2=O)c(F)cc1Cl [Example 77]	logP = 2.53^a)	
Cn1c(C(F)(F)F)cc(=O)n(-c2cc(NC(=O)N3CCC4(CC3)OCCO4)c(Cl)cc2F)c1=O [Example 84]	logP = 2.29^a)	
Cn1c(C(F)(F)F)cc(=O)n(-c2cc(NC(=O)N3CCC4(CC3)OCCO4)c(Br)cc2F)c1=O [Example 85]	logP = 2.35^a)	
Cn1c(C(F)(F)F)cc(=O)n(-c2cc(NC(=O)N3CCC4(CC3)OCCCO4)c(Cl)cc2F)c1=O [Example 86]	logP = 2.29^a)	
Cn1c(C(F)(F)F)cc(=O)n(-c2cc(NC(=O)N3CCC4(CC3)OCCCO4)c(Br)cc2F)c1=O [Example 87]	logP = 2.35^a)	
Cn1c(C(F)(F)F)cc(=O)n(-c2cc(NC(=O)N3CCC(=O)CC3)c(Cl)cc2F)c1=O [Example 92]		logP [1, 3]: logP = 1.93^a)
Cn1c(C(F)(F)F)cc(=O)n(-c2cc(NC(=O)N3CCC(=O)CC3)c(Br)cc2F)c1=O [Example 93]		logP [1, 3]: logP = 1.97^a)
CC(=O)NC1CCN(C(=O)Nc2cc(-n3c(=O)cc(C(F)(F)F)n(C)c3=O)c(F)cc2Cl)C1 (stereo not drawn) [Example 94]	logP = 1.74^a)	
CC(=O)NC1CCN(C(=O)Nc2cc(-n3c(=O)cc(C(F)(F)F)n(C)c3=O)c(F)cc2Br)C1 (stereo not drawn) [Example 95]	logP = 1.80^a)	
CCOC(=O)N1CCN(C(=O)Nc2cc(-n3c(=O)cc(C(F)(F)F)n(C)c3=O)c(F)cc2Cl)CC1 [Example 96]	logP = 2.43^a)	
CCOC(=O)N1CCN(C(=O)Nc2cc(-n3c(=O)cc(C(F)(F)F)n(C)c3=O)c(F)cc2Br)CC1 [Example 97]	logP = 2.47^a)	
Cn1c(C(F)(F)F)cc(=O)n(-c2cc(NC(=O)N3CCCCCC3)c(Cl)cc2F)c1=O [Example 98]	logP = 3.02^a)	
Cn1c(C(F)(F)F)cc(=O)n(-c2cc(NC(=O)N3CCCCCC3)c(Br)cc2F)c1=O [Example 99]	logP = 3.10^a)	
CCOC(=O)C(C)(C)ONC(=O)Nc1cc(-n2c(=O)cc(C(F)(F)F)n(C)c2=O)c(F)cc1Cl [Example 100]	logP = 3.11^a)	
CCOC(=O)C(C)(C)ONC(=O)Nc1cc(-n2c(=O)cc(C(F)(F)F)n(C)c2=O)c(F)cc1Br [Example 101]	logP = 3.16^a)	
Cn1c(C(F)(F)F)cc(=O)n(-c2cc(NC(=O)N3CCCS3(=O)=O)c(Cl)cc2F)c1=O [Example 102]	logP = 2.38^a)	

SMILES	logP [1]	other results
Cn1c(C(F)(F)F)cc(=O)n(-c2cc(NC(=O)N3CCCS3(=O)=O)c(Br)cc2F)c1=O [Example 103]	logP = 2.41^a)	
CCOC(=O)CONC(=O)Nc1cc(-n2c(=O)cc(C(F)(F)F)n(C)c2=O)c(F)cc1Cl [Example 104]	logP = 2.58^a)	
CCOC(=O)CONC(=O)Nc1cc(-n2c(=O)cc(C(F)(F)F)n(C)c2=O)c(F)cc1Br [Example 105]	logP = 2.62^a)	
C=CCN(C(=O)N(C)OC)c1cc(-n2c(=O)cc(C(F)(F)F)n(C)c2=O)c(F)cc1Cl [Example 106]		logP [1, 3]: logP = 2.96^a)
C#CCN(C(=O)N(C)OC)c1cc(-n2c(=O)cc(C(F)(F)F)n(C)c2=O)c(F)cc1Cl [Example 108]	logP = 2.75^a)	
CON(C)C(=O)N(c1cc(-n2c(=O)cc(C(F)(F)F)n(C)c2=O)c(F)cc1Cl)S(C)(=O)=O [Example 109]	logP = 2.56^a)	
CCN(C(=O)N(C)OC)c1cc(-n2c(=O)cc(C(F)(F)F)n(C)c2=O)c(F)cc1Cl [Example 111]	logP = 2.80^a)	
Cn1c(C(F)(F)F)cc(=O)n(-c2cc(NC(=O)N3CCC(O)C3)c(Cl)cc2F)c1=O (stereo not drawn) [Example 113]	logP = 1.72^a)	
Cn1c(C(F)(F)F)cc(=O)n(-c2cc(NC(=O)N3CCC(O)CC3)c(Cl)cc2F)c1=O [Example 117]	logP = 1.77^a)	
Cn1c(C(F)(F)F)cc(=O)n(-c2cc(NC(=O)N3CCC(O)CC3)c(Br)cc2F)c1=O [Example 118]	logP = 1.81^a)	
CC1CN(C(=O)Nc2cc(-n3c(=O)cc(C(F)(F)F)n(C)c3=O)c(F)cc2Cl)CC(C)O1 (stereo not drawn) [Example 119]	logP = 2.50^a)	
CC1CN(C(=O)Nc2cc(-n3c(=O)cc(C(F)(F)F)n(C)c3=O)c(F)cc2Br)CC(C)O1 (stereo not drawn) [Example 120]	logP = 2.55^a)	
CCOC(=O)CN(C)C(=O)Nc1cc(-n2c(=O)cc(C(F)(F)F)n(C)c2=O)c(F)cc1Cl [Example 121]	logP = 2.48^a)	
CCOC(=O)CN(C)C(=O)Nc1cc(-n2c(=O)cc(C(F)(F)F)n(C)c2=O)c(F)cc1Br [Example 122]	logP = 2.54^a)	
CCOC(=O)COC(=O)Nc1cc(-n2c(=O)cc(C(F)(F)F)n(C)c2=O)c(F)cc1Br [Example 125]	logP = 2.79^a)	
CCOC(=O)COC(=O)Nc1cc(-n2c(=O)cc(C(F)(F)F)n(C)c2=O)c(F)cc1Cl [Example 126]	logP = 2.74^a)	
CCOC(=O)C(C)OC(=O)Nc1cc(-n2c(=O)cc(C(F)(F)F)n(C)c2=O)c(F)cc1Cl (stereo not drawn) [Example 127]	logP = 2.74^a)	
CCOC(=O)C1CCCN(C(=O)Nc2cc(-n3c(=O)cc(C(F)(F)F)n(C)c3=O)c(F)cc2C#N)C1 (stereo not drawn) [Example 133]	logP = 2.70^a)	
